US11091497B2, “Pyrano[3,4-b]pyrazine kappa opioid receptor ligands for treating addiction, pruritus, pain, and inflammation” (The Rockefeller University, priority 2017, dated 2021)

Experiments:
[1] = molecular target: T1, human kappa opioid receptors (Homo sapiens, UniProt P41145); experiment: [35S]GTPγS stimulation, membranes from U2OS cells; format: biochemical; settings: for Emax: read-out: GTPγS stimulation % efficacy
T1 construct: expressed in transfected cells; host or cells: U2OS
Experimental: Membranes from cells stably expressing kappa, mu or delta opioid receptor constructs (PathHunter U2OS hOPRK1, CHO-K1 rOPRM1 and CHO-K1 OPRD1 β-arrestin cell line, DiscoverX, Fremont, Calif., USA) were used. Cells were scraped from tissue culture plates, homogenized with a tissue tearor homogenizer in membrane buffer (10 mM Tris, 100 mM NaCl, and 1 mM EDTA; pH 7.4), and centrifuged at 20,000 g for 30 minutes at 4° C. and frozen at −80° C. until use. Prior to use, the pellets were resuspended in binding buffer (50 mm Tris, 100 mm NaCl, pH 7.4), homogenized with a dounce homogenizer and […] incubated with 1.0 nM of the appropriate tritiated ligand ([^3H]U69,593, [^3H]DAMGO or [^3H]DPDPE for kappa, mu or delta binding, respectively) and the appropriate concentration of compound for 60 minutes at 30° C. Membranes with bound tritiated ligand were collected on Whatman GF/B filter paper (Brandel, Gaithersburg, Md., USA) utilizing a Brandel harvester. Bound tritiated ligand was quantified using a TriCarb-2900TR scintillation counter (Packard, Downers Grove, Ill., USA) following addition of 4 ml ReadySafe scintillation fluid (Beckman Coulter, Indianapolis, Ind., USA). Compiled data for each compound was normalized to the maximal binding in the absence of compound, with non-specific binding subtracted. Curve fitting was done in Microcal Origin 17.0 software using logistic sigmoidal fit, to determine IC50. GTPgammaS Membranes from U2OS cells stably expressing human kappa opioid receptors were used. Cells were scraped from tissue culture plates, homogenized with a tissue tearor homogenizer in membrane buffer (10 mM Tris, 100 mM NaCl, and 1 mM EDTA; pH 7.4), and centrifuged at 20,000 g for 30 minutes at 4° C. and frozen at −80° C. until use. Prior to use, the pellets were resuspended in assay buffer (50 mm Tris, 100 mm NaCl, 5 mM MgCl2, and 1 mM EDTA; pH 7.4) and homogenized with a dounce homogenizer and 50 μg incubated with 0.1 nM [35 S]GTPγS, 10 nM GDP, and the appropriate concentration of agonist for 20 minutes at 30° C. To test inhibition, all samples were incubated with 100 nM U69,593 as well as the appropriate concentration of compound. Membranes with bound [35 S]GTPγS were collected on Whatman GF/B filter paper (Brandel, Gaithersburg, Md., USA) utilizing a Brandel harvester. Bound [35 S]GTPγS was quantified using a TriCarb-2900TR scintillation counter (Packard, Downers Grove, Ill., USA) following addition of 4 mL ReadySafe scintillation fluid (Beckman Coulter, Indianapolis, Ind., USA). […] For each compound, curve fitting was done in Microcal Origin 17.0 software using logistic sigmoidal fit, to determine EC50 and maximal percent stimulation, which in turn was normalized to the maximal percent stimulation of the test full agonist compound U69,593 to determine % efficacy. β2-Arrestin Experiments were conducted using the PathHunter Detection Kit obtained from DiscoverX. Cells stably expressing kappa, mu or delta opioid receptor constructs (PathHunter U2OS hOPRK1, CHO-K1 rOPRM1 and CHO-K1 OPRD1 β-arrestin cell line, DiscoverX, Fremont, Calif., USA) were plated in 96- or 384-well plates. Cells were stimulated with the compounds for 90 minutes at 37° C. To test inhibition, all samples were incubated with 100 nM U69,593 as well as the appropriate concentration of compound. Cells were then incubated for 60 minutes in the presence of galoctosidase substrate, yielding chemiluminescent product. Chemiluminescence was measured using a Synergy Neo microplate reader (BioTek, Winooski, Vt., USA). Antagonism assays were done in the same manner, in the presence of 300 nM U69,593, 1 μM DAMGO or 1 μM DPDPE for KOP-R, MOP-R or DOP-R assays, respectively.

[2] = molecular target: T2, kappa opioid receptor (PathHunter U2OS hOPRK1 membranes) (Homo sapiens, UniProt P41145); experiment: Tritiated U69,593 binding for KOP-R membranes
T2 construct: host or cells: U2OS (PathHunter U2OS hOPRK1 β-arrestin cell line)
T2 sequence (P41145 whole entry): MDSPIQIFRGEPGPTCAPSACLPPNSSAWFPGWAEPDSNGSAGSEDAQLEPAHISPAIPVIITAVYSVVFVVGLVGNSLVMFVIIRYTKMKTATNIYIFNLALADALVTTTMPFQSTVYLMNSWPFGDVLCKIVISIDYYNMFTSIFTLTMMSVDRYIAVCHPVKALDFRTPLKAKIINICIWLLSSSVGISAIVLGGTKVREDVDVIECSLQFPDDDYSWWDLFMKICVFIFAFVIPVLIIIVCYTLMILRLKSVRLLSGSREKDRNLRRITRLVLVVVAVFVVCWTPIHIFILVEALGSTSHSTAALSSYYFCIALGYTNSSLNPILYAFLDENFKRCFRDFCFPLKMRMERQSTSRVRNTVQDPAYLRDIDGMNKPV
Experimental: Tritiated U69,593 binding for KOP-R membranes; tritiated DAMGO binding for MOP-R membranes; and tritiated DPDPE binding for DOP-R membranes:
(§1) Membranes from cells stably expressing kappa, mu or delta opioid receptor constructs (PathHunter U2OS hOPRK1, CHO-K1 rOPRM1 and CHO-K1 OPRD1 β-arrestin cell line, DiscoverX, Fremont, Calif., USA) were used. Cells were scraped from tissue culture plates, homogenized with a tissue tearor homogenizer in membrane buffer (10 mM Tris, 100 mM NaCl, and 1 mM EDTA; pH 7.4), and centrifuged at 20,000 g for 30 minutes at 4° C. and frozen at −80° C. until use. Prior to use, the pellets were resuspended in binding buffer (50 mm Tris, 100 mm NaCl, pH 7.4), homogenized with a dounce homogenizer and […] incubated with 1.0 nM of the appropriate tritiated ligand ([^3H]U69,593, [^3H]DAMGO or [^3H]DPDPE for kappa, mu or delta binding, respectively) and the appropriate concentration of compound for 60 minutes at 30° C. Membranes with bound tritiated ligand were collected on Whatman GF/B filter paper (Brandel, Gaithersburg, Md., USA) utilizing a Brandel harvester. Bound tritiated ligand was quantified using a TriCarb-2900TR scintillation counter (Packard, Downers Grove, Ill., USA) following addition of 4 ml ReadySafe scintillation fluid (Beckman Coulter, Indianapolis, Ind., USA). Compiled data for each compound was normalized to the maximal binding in the absence of compound, with non-specific binding subtracted. Curve fitting was done in Microcal Origin 17.0 software using logistic sigmoidal fit, to determine IC50. GTPgammaS Membranes from U2OS cells stably expressing human kappa opioid receptors were used. Cells were scraped from tissue culture plates, homogenized with a tissue tearor homogenizer in membrane buffer (10 mM Tris, 100 mM NaCl, and 1 mM EDTA; pH 7.4), and centrifuged at 20,000 g for 30 minutes at 4° C. and frozen at −80° C. until use. Prior to use, the pellets were resuspended in assay buffer (50 mm Tris, 100 mm NaCl, 5 mM MgCl2, and 1 mM EDTA; pH 7.4) and homogenized with a dounce homogenizer and 50 μg incubated with 0.1 nM [35 S]GTPγS, 10 nM GDP, and the appropriate concentration of agonist for 20 minutes at 30° C. To test inhibition, all samples were incubated with 100 nM U69,593 as well as the appropriate concentration of compound. Membranes with bound [35 S]GTPγS were collected on Whatman GF/B filter paper (Brandel, Gaithersburg, Md., USA) utilizing a Brandel harvester. Bound [35 S]GTPγS was quantified using a TriCarb-2900TR scintillation counter (Packard, Downers Grove, Ill., USA) following addition of 4 mL ReadySafe scintillation fluid (Beckman Coulter, Indianapolis, Ind., USA). […] NA indicates not applicable. For each compound, curve fitting was done in Microcal Origin 17.0 software using logistic sigmoidal fit, to determine EC50 and maximal percent stimulation, which in turn was normalized to the maximal percent stimulation of the test full agonist compound U69,593 to determine % efficacy. β2-Arrestin Experiments were conducted using the PathHunter Detection Kit obtained from DiscoverX. Cells stably expressing kappa, mu or delta opioid receptor constructs (PathHunter U2OS hOPRK1, CHO-K1 rOPRM1 and CHO-K1 OPRD1 β-arrestin cell line, DiscoverX, Fremont, Calif., USA) were plated in 96- or 384-well plates. Cells were stimulated with the compounds for 90 minutes at 37° C. To test inhibition, all samples were incubated with 100 nM U69,593 as well as the appropriate concentration of compound. Cells were then incubated for 60 minutes in the presence of galoctosidase substrate, yielding chemiluminescent product. Chemiluminescence was measured using a Synergy Neo microplate reader (BioTek, Winooski, Vt., USA). Antagonism assays were done in the same manner, in the presence of 300 nM U69,593, 1 μM DAMGO or 1 μM DPDPE for KOP-R, MOP-R or DOP-R assays, respectively. […] NA indicates not applicable. […]

[3] = molecular target: T3, kappa opioid receptor (PathHunter U2OS hOPRK1 β-arrestin cell line) (Homo sapiens, UniProt P41145); experiment: β-arrestin coupling (PathHunter Detection Kit); format: cell-based; settings: for Emax at 10 µM: U2OS, read-out: β-arrestin coupling % efficacy at 10 μM
T3 construct: host or cells: U2OS (PathHunter U2OS hOPRK1 β-arrestin cell line)
T3 sequence (P41145 whole entry): as above
Experimental: as §1

T1 sequence (P41145 whole entry): as above

| SMILES | EC50 [1] | Emax [1] | IC50 [2] | Emax at 10 µM [3] | β-arrestin coupling % efficacy ([3]; maximal, normalized to U69,593, No stim = no stimulation at highest dose tested, 10,000 nM) |
| --- | --- | --- | --- | --- | --- |
| O=C(Cc1ccc(Cl)c(Cl)c1)N1CCN(Cc2ccccc2)[C@H]2COC[C@@H](N3CCCC3)[C@@H]21 (single isomer, unassigned) [Example 5A53B] | 0.0048 µM | 58% | 0.044 µM | 80% |  |
| O=C(Cc1ccc(Cl)c(Cl)c1)N1CCN(CC2CCC2)[C@@H]2COC[C@H](N3CCCC3)[C@H]21 (single isomer, unassigned) [Example 5A55A] | 0.03 µM | 84% | 0.094 µM |  | No stim |
| O=C(Cc1ccc(Cl)c(Cl)c1)N1CCN(CC2CCC2)[C@H]2COC[C@@H](N3CCCC3)[C@@H]21 (single isomer, unassigned) [Example 5A55B] | 0.013 µM | 62% | 0.02 µM | 80% |  |
| CC(C)CN1CCN(C(=O)Cc2ccc(Cl)c(Cl)c2)[C@H]2[C@H]1COC[C@@H]2N1CCCC1 [Example 5A71] | 0.014 µM | 93% | 0.027 µM | 40% |  |
